Data published in patent publication US5744479A, “Thienopyridine compounds which have useful pharmaceutical activity” (Takeda Chemical Industries, Ltd., priority 1995, dated 1998).
Where a name gives a salt, the structure may show the parent alone.

These compounds were tested against T1, human GnRH receptor (Homo sapiens, UniProt P30968) (assay: Inhibition of ^125 I-leuprorelin binding to membrane fraction of CHO cells expressing human GnRH receptors). Settings: CHO cell membrane fraction, 25° C., 60 minutes, concentration of PMB=50% by Hill plot, read-out: IC50 value human GnRH receptor (^125 I-leuprorelin binding inhibitory rate).
T1 construct: expressed in transfected cells; host or cells: CHO (Chinese Hamster Ovary) cells, membrane fraction
T1 sequence (P30968 1-328): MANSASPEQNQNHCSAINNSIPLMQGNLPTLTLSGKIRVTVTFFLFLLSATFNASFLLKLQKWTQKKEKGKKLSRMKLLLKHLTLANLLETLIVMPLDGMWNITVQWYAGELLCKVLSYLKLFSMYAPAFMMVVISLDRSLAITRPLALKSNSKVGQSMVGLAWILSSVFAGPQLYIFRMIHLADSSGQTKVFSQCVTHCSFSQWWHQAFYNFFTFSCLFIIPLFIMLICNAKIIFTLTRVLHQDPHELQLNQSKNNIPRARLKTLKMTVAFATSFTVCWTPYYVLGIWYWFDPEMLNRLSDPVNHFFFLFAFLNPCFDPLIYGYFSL

| Structure (SMILES) | IC50 [nM] |
| --- | --- |
| CCOC(=O)COc1cn(Cc2c(F)cccc2F)c2sc(-c3ccc(NC(=O)C(C)C)cc3)c(CN(C)Cc3ccccc3)c2c1=O [Example 12, 4,7-dihydro-2-(4-isobutyrylaminophenyl)-3-(N-benzyl-N-methylaminomethyl)-5-ethoxycarbonylmethoxy-7-(2,6-difluorobenzyl)-4-oxothieno[2,3-b]pyridine] | 3 |
| CC(C)Oc1cn(Cc2c(F)cccc2F)c2sc(-c3ccc(NC(=O)C(C)C)cc3)c(CN(C)Cc3ccccc3)c2c1=O [Example 8(4), 4,7-dihydro-2-(4-isobutyrylaminophenyl)-3-(N-benzyl-N-methylaminomethyl)-5-isopropoxy-7-(2,6-difluorobenzyl)-4-oxothieno[2,3-b]pyridine] | 1 |
| CC(C)C(=O)Nc1ccc(-c2sc3c(c2CN(C)Cc2ccccc2)c(=O)c(OS(=O)(=O)C(C)C)cn3Cc2c(F)cccc2F)cc1 [Example 10, 4,7-dihydro-2-(4-isobutyrylaminophenyl)-3-(N-benzyl-N-methylaminomethyl)-5-isopropylsulfonyloxy-7-(2,6-difluorobenzyl)-4-oxothieno[2,3-b]pyridine hydrochloride] | 0.3 |
| CC(C)C(=O)Nc1ccc(-c2sc3c(c2CN(C)Cc2ccccc2)c(=O)c(OC(=O)C(C)C)cn3Cc2c(F)cccc2F)cc1 [Example 11, 4,7-dihydro-2-(4-isobutyrylaminophenyl)-3-(N-benzyl-N-methylaminomethyl)-5-isobutyryloxy-7-(2,6-difluorobenzyl)-4-oxothieno[2,3-b]pyridine hydrochloride] | 2 |
